Data set [1] in a line: metabolic stability in human liver microsomes. The class given is in vitro ADME. To be noted: for metabolic stability, in words: human liver microsomes 0.5 mg/mL, compound 1 μM; for degradation after an incubation period of 60 min: human liver microsomes. (Liver microsomes are vesicles of endoplasmic reticulum, rich in cytochrome P450 enzymes.)
Data set [2] addresses T1, human GPR84 (Homo sapiens, UniProt Q9NQS5). In words: cell-based. Type of data set: cell-based. As to conditions: for Emax: read-out: efficacy (Emax), cAMP assay; for EC50: CHO cells expressing human GPR84, forskolin 10 μM. Background: Changes in cAMP serve as a functional read-out for many G protein-coupled receptors.
Target sequence in this assay (Q9NQS5 whole entry): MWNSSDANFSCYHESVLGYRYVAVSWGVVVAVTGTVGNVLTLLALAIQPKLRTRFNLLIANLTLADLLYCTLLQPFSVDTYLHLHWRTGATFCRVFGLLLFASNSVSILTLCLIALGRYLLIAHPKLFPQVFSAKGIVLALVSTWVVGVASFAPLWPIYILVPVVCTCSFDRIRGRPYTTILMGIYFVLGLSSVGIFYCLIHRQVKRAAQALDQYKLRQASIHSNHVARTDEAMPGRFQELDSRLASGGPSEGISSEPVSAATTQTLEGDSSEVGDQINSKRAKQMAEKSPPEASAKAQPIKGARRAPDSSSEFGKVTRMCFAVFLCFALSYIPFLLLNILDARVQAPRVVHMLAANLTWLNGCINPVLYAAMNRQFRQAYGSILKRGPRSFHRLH
Data set [3] has as its system CHO wild-type (wt) cells. In words: cAMP accumulation assay in wild-type CHO cells not expressing GPR84.
For data set [4], the target named is T1, human GPR84. In words: cell-based. As to conditions: EC50 ± SEM, β-arrestin assay, CHO cells expressing human GPR84.
Target sequence in this assay (Q9NQS5 whole entry): as above
Target sequence in this assay (P32121 whole entry partner): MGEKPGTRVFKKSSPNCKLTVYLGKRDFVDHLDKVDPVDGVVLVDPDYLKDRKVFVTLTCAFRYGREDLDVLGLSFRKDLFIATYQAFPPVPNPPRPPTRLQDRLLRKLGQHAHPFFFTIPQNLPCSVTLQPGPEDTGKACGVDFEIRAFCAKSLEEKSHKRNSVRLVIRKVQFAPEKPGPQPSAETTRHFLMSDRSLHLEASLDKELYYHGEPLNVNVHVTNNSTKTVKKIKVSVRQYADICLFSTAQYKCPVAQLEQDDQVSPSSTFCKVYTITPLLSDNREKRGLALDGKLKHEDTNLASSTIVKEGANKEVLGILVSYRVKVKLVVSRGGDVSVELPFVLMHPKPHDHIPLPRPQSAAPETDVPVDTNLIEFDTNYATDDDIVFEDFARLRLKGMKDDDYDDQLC
Data set [5] concerns the target T1, human GPR84. To be noted: compound 10 μM.
Target sequence in this assay (Q9NQS5 whole entry): as the sequence (Q9NQS5 whole entry) above
Target sequence in this assay (P32121 whole entry partner): as the sequence (P32121 whole entry partner) above
Data set [6] relates to human GPR84. In words: pathway bias calculation, Gi. Type of data set: cell-based. To be noted: corresponding to the bias factor.
Data set [7] concerns X-linked inhibitor of apoptosis. To be noted: read-out: IC50, X-linked inhibitor of apoptosis; cited from earlier work.
Data set [8] concerns rodents. To be noted: orally, acute exposure; cited from earlier work.
Setting [9] is: high concentrations of up to 100 μM.
[10] abbreviates: both, human, pooled human liver microsomes.

Entries after “also recorded” stand apart in the source; their conditions may differ. Where only a bound is given, the exact number is not on record here.

Regarding `CCCCCCSc1nc(O)cc(O)n1` [2-hexylthiopyrimidine-4,6-diol (5), 2-hexylthiopyrimidine-4,6-diol, reference compound], the “drug disappeared after 30 min of incubation” value in data set [1] (human microsomes, 30 min) was about 40%.
Consider `CCCCCCCCNc1cc(=O)[nH]c(=O)[nH]1` [Compound 4, 6-octylaminouracil], for which, in data set [2], the Emax is 104%. The “effect in nontransfected CHO cells (cAMP assay)” value in data set [3] was “no effect”. For the same molecule, the “effect on forskolin-induced cAMP accumulation in CHO wt cells” value (from here on “effect … in CHO wt cells”) in data set [3] (concentrations of up to 1 μM) is reported as “None of the tested compounds showed any significant effect”; in data set [3] (setting [9]), “no effect”.
For the molecule `CCCCCCNc1cc(=O)[nH]c(=O)[nH]1` [Compound 20, 6-Hexylamino-2,4(1H,3H)-pyrimidinedione], the maximum response (Emax) in data set [2] is 127%. Moreover, in data set [1], the “metabolic stability, in words” value was “metabolically stable; also recorded: highly stable” and the “degradation after an incubation period of 60 min” value (“degradation … of 60 min” for short) is recorded as “negligible”. The “degradation after 30 min of incubation, in words” value (from here on “degradation after 30 min”) in data set [1] (human microsomes, 30 min) is on record as “no degradation”. Moreover, the “effect … in CHO wt cells” value in data set [3] (concentrations of up to 1 μM) is on record as “None of the tested compounds showed any significant effect”. Further, the “effect … in CHO wt cells” value in data set [3] (setting [9]) is recorded as “no effect”.
In the case of `CCCCCCCCCNc1cc(=O)[nH]c(=O)[nH]1` [Compound 22, 6-Nonylamino-2,4(1H,3H)-pyrimidinedione], the maximal effect (Emax) in data set [2] is 118%. Also, in data set [1] (setting [10]), the half-life at 1 μM turned out to be 2 min and the microsomal CLint at 1 μM is 880 µL/min/mg. Also, the midpoint of the response in data set [4], the EC50, lay at 34 ± 7 nM.
With `CCCCCCCCCCNc1cc(=O)n(C)c(=O)[nH]1` [Compound 33, 6-Decylamino-3-methyl-2,4(1H,3H)-pyrimidinedione], the EC50 is 1900 ± 680 nM in data set [2] (EC50 ± SEM, cAMP assay) and over 10000 nM in data set [4]. Also, the maximal response (Emax) in data set [2] is 72%. In data set [5], the “percent receptor activation at 10 μM, β-arrestin assay” value (“percent receptor activation at 10 μM” for short) is listed as 8%.
Turning to `Oc1cc(NCCc2ccccc2)nc(O)n1` [Compound 42, 6-(2-Phenylethylamino)-2,4(1H,3H)-pyrimidinedione], in data set [1], the “metabolic stability, in words” value was “highly stable” and the “degradation … of 60 min” value is on record as “negligible”. Moreover, the “degradation after 30 min” value in data set [1] (human microsomes, 30 min) is on record as “no degradation”.
On to `O=c1cc(NCCc2ccc(Cl)cc2)[nH]c(=O)[nH]1` [Compound 47, 6-((p-chlorophenylethyl)amino)-2,4(1H,3H)-pyrimidinedione], for which, in data set [2], the Emax is 137%. The “preference for Gi coupling versus β-arrestin recruitment” value in data set [6] is reported as 79 fold. Moreover, in data set [3] (concentrations of up to 1 μM), the “effect … in CHO wt cells” value is recorded as “None of the tested compounds showed any significant effect”.
Regarding `O=c1cc(NCCc2ccc(Br)cc2)[nH]c(=O)[nH]1` [Compound 48, 6-(p-Bromophenylethylamino)-2,4(1H,3H)-pyrimidinedione], the Emax in data set [2] is 127%. The “preference for Gi coupling versus β-arrestin recruitment” value in data set [6] was 20 fold. Besides, in data set [1], the “metabolic stability, in words” value is listed as “metabolically stable; also recorded: highly stable” and the “degradation … of 60 min” value is on record as “negligible”. In addition, the “degradation after 30 min” value in data set [1] (human microsomes, 30 min) was “no degradation”. In data set [3] (concentrations of up to 1 μM), the “effect … in CHO wt cells” value is reported as “None of the tested compounds showed any significant effect”.
`CCc1ccc(CCNc2cc(=O)[nH]c(=O)[nH]2)cc1` [Compound 49, 6-(p-Ethylphenylethylamino)-2,4(1H,3H)-pyrimidinedione]: the concentration giving a half-maximal response (EC50) in data set [2] (EC50, cAMP assay) is under 10 nM; in data set [4], 120 ± 50 nM. In addition, the maximum response (Emax) in data set [2] is 136%. The “effect … in CHO wt cells” value in data set [3] (concentrations of up to 1 μM) is listed as “None of the tested compounds showed any significant effect”.
In the case of `COc1ccc(CCNc2cc(=O)[nH]c(=O)[nH]2)cc1OC` [Compound 60, 6-(m,p-Dimethoxyphenethylamino)-2,4(1H,3H)-pyrimidinedione], the concentration for a half-maximal effect (EC50) in data set [2] (EC50 ± SEM, cAMP assay) is 810 ± 230 nM; in data set [4], over 10000 nM. The Emax in data set [2] is 116%. Besides, the “percent receptor activation at 10 μM” value in data set [5] came to 28%.
With `O=c1cc(NCCc2c[nH]c3ccccc23)[nH]c(=O)[nH]1` [Compound 62, 6-(1H-Indol-3-ylethylamino)-2,4(1H,3H)-pyrimidinedione], the “percent receptor activation at 10 μM” value in data set [5] was 14%. For the same molecule, the concentration for a half-maximal effect (EC50) in data set [4] is over 10000 nM.
As for `O=c1cc(NCCOc2ccccc2)[nH]c(=O)[nH]1` [Compound 64, 6-(2-Phenoxyethylamino)-2,4(1H,3H)-pyrimidinedione], the EC50 came out at 100 ± 50 nM in data set [2] (EC50 ± SEM, cAMP assay) and 730 ± 130 nM in data set [4]. Moreover, the maximal effect (Emax) in data set [2] is 113%.
In the same order, the values of `O=c1cc(N2CCC(Cc3ccccc3)CC2)[nH]c(=O)[nH]1` [Compound 67, 6-(4-Benzylpiperidin-1yl)-2,4(1H,3H)-pyrimidinedione] are 130 ± 10 nM, 600 ± 160 nM and 114%.
In the case of `O=c1cc(N2CCN(c3ccc(Cl)cc3)CC2)[nH]c(=O)[nH]1` [Compound 68, 6-[4-(p-Chlorophenyl)-1-piperazinyl]-2,4(1H,3H)-pyrimidinedione], the maximal response (Emax) in data set [2] is 117%. Also, the EC50 in data set [4] came out at 1800 ± 200 nM.
In the same order, the values of `O=c1[nH]c(NCCc2ccc(Br)cc2)c(Br)c(=O)[nH]1` [Compound 74, 5-Bromo-6-(p-bromophenylethylamino)-2,4(1H,3H)-pyrimidinedione] are 114% and 6700 ± 1800 nM.
On to `CCCCCCCCCCCC1=C(O)C(=O)C=C(O)C1=O` [embelin (6), embelin], for which the half-inhibitory concentration (IC50) in data set [7] was 4100 nM. Also, the “dose found to be safe” value in data set [8] is on record as “up to 3 g/kg”.

By Emax is commonly meant the greatest response seen or fitted, relative to the assay's reference. A word on the half-life: it is the time in which the quantity being followed falls by half. In general, microsomal CLint refers to the capacity of the preparation to metabolise the compound, expressed as a volume cleared per time. Lower therefore signals slow turnover. The term EC50 denotes the concentration giving half of the maximal effect. A word on the IC50: it is the concentration that gives 50% inhibition.

Source of the values: publication PMC6044507 (ACS Omega, 2018).
